From patent US7026308B1, “Topical anti-microbial compositions” (The Procter & Gamble Company, priority 1999, dated 2006)

Columns and labels:
[1] = test system: Malassezia furfur (ATCC 14521); assay: Minimum Inhibitory Concentration (MIC) in mDixon agar; format: cell-based; conditions: for MIC (ppm of metal ion) Alone: M. furfur, 5 days 30°; for MIC (ppm of metal ion) +4 ppm ZPT: metal ion in combination with 4 ppm ZPT (sub-MIC); for MIC (ppm of metal ion) +0.5 ppm ZPT: metal ion in combination with 0.5 ppm ZPT (sub-MIC); for MIC (ppm of metal ion) +2 ppm ZPT: metal ion in combination with 2 ppm ZPT (sub-MIC)
[2] = test system: Malassezia furfur (ATCC 14521); assay: Kill Rate Test (KRT) in mDixon broth; format: cell-based
Experimental: Experiments were conducted to investigate the efficacy of the composition of the present invention to inhibit the survival, growth, and proliferation of microorganisms in topical compositions. The test microorganism was Malassezia furfur. The Kill Rate Test (KRT) results are indicative of anti-fungal efficacy. Generally, the greater the inhibition of fungal growth in this test, the better the anti-fungal efficacy of the compound(s) tested. A flask containing mDixon broth medium (see Gueho, et al. Antoinie Leeuwenhoek (1996), no. 69, 337–55, which description is incorporated by reference herein) was inoculated with Malassezia furfur. Specific concentrations of active(s) were then added to the flask Samples were then withdrawn from the flask at specified time points, diluted in sterile water, and spread across the surface of a mDixon agar plate. […] The lower the CFU/ml count, the better activity the active(s) have against M. furfur. […] Experimental Procedure • 1. […] For Mg^2+, Ag^+, Mn ^2+, Bi^3+, and Na^+ Step 8 was repeated at the 24 and 48 hour time points.

[3] = Table 2(a), 0.05% metal salt (with 10 ppm ZPT where labelled)
[4] = Table 2(a), 0.5% metal salt (with 10 ppm ZPT where labelled)
[5] = Table 2(b), 0.05% metal salt (with 10 ppm ZPT where labelled)
[6] = Table 2(b), 0.5% metal salt (with 10 ppm ZPT where labelled)

Structure (SMILES): [Hg+2] [Mercury (2+)]
- MIC (ppm of metal ion) Alone [1]: 50 ppm
- MIC (ppm of metal ion) +4 ppm ZPT [1]: 5 ppm

Structure (SMILES): O=S(=O)([O-])[O-].[Na+].[Na+] [Na2SO4]
- Plate Area Colonized, 0 Hours [2, 3]: 3.97E+06 mm2
- Plate Area Colonized, 24 Hours [2, 3]: 3.75E+07 mm2
- Plate Area Colonized, 48 Hours [2, 3]: 3.42E+06 mm2
- Plate Area Colonized, 0 Hours [2, 4]: 3.97E+06 mm2
- Plate Area Colonized, 24 Hours [2, 4]: 1.44E+07 mm2
- Plate Area Colonized, 48 Hours [2, 4]: 2.95E+06 mm2

Structure (SMILES): [O-]n1ccccc1=S.[O-]n1ccccc1=S.[Zn+2] [ZPT, zinc salt of 1-hydroxy-2-pyridinethione, reference compound]
- Plate Area Colonized, 0 Hours ([2]; Table 2(a), 10 ppm): 3.97E+06 mm2
- Plate Area Colonized, 24 Hours ([2]; Table 2(a), 10 ppm): 2.52E+05 mm2
- Plate Area Colonized, 48 Hours ([2]; Table 2(a), 10 ppm): 2.30E+03 mm2
- Plate Area Colonized, 0 Hours ([2]; Table 2(b), 10 ppm): 2.12E+07 mm2
- Plate Area Colonized, 4 Hours ([2]; Table 2(b), 10 ppm): 3.49E+07 mm2
- Plate Area Colonized, 24 Hours ([2]; Table 2(b), 10 ppm): 6.44E+06 mm2
- Plate Area Colonized, 48 Hours ([2]; Table 2(b), 10 ppm): 4.86E+05 mm2

Structure (SMILES): O=S(=O)([O-])[O-].[Ag+].[Ag+] [Ag2SO4]
- Plate Area Colonized, 0 Hours [2, 3]: 3.97E+06 mm2
- Plate Area Colonized, 24 Hours [2, 3]: 7.46E+05 mm2
- Plate Area Colonized, 48 Hours [2, 3]: 1.22E+05 mm2
- Plate Area Colonized, 0 Hours [2, 4]: 3.97E+06 mm2
- Plate Area Colonized, 24 Hours [2, 4]: 1.65E+06 mm2
- Plate Area Colonized, 48 Hours [2, 4]: 1.00E+00 mm2

Structure (SMILES): [Zn+2] [Zinc (2+)]
- MIC (ppm of metal ion) Alone [1]: 5000 ppm
- MIC (ppm of metal ion) +0.5 ppm ZPT [1]: 500 ppm
- MIC (ppm of metal ion) +2 ppm ZPT [1]: 50 ppm
- MIC (ppm of metal ion) +4 ppm ZPT [1]: 5 ppm

Structure (SMILES): O=S(=O)([O-])[O-].[Mn+2] [MnSO4]
- Plate Area Colonized, 0 Hours [2, 3]: 3.97E+06 mm2
- Plate Area Colonized, 24 Hours [2, 3]: 1.97E+07 mm2
- Plate Area Colonized, 48 Hours [2, 3]: 5.91E+06 mm2
- Plate Area Colonized, 0 Hours [2, 4]: 3.97E+06 mm2
- Plate Area Colonized, 24 Hours [2, 4]: 1.16E+05 mm2
- Plate Area Colonized, 48 Hours [2, 4]: 2.35E+02 mm2

Structure (SMILES): [Cl][Bi]([Cl])[Cl] [BiCl3]
- Plate Area Colonized, 0 Hours [2, 3]: 3.97E+06 mm2
- Plate Area Colonized, 24 Hours [2, 3]: 1.96E+07 mm2
- Plate Area Colonized, 48 Hours [2, 3]: 3.03E+06 mm2
- Plate Area Colonized, 0 Hours [2, 4]: 3.97E+06 mm2
- Plate Area Colonized, 24 Hours [2, 4]: 1.11E+06 mm2
- Plate Area Colonized, 48 Hours [2, 4]: 3.42E+05 mm2

Structure (SMILES): [Cu+2] [Copper (2+)]
- MIC (ppm of metal ion) Alone [1]: 5000 ppm
- MIC (ppm of metal ion) +0.5 ppm ZPT [1]: 5000 ppm
- MIC (ppm of metal ion) +2 ppm ZPT [1]: <0.5 ppm
- MIC (ppm of metal ion) +4 ppm ZPT [1]: <0.005 ppm
- MIC (ppm of metal ion) +4 ppm ZPT ([1]; listed as copper ions): less than 0.005 ppm

Structure (SMILES): O=S(=O)([O-])[O-].[Zn+2] [ZnSO4]
- Plate Area Colonized, 0 Hours [2, 5]: 2.12E+07 mm2
- Plate Area Colonized, 4 Hours [2, 5]: 8.14E+07 mm2
- Plate Area Colonized, 24 Hours [2, 5]: 7.22E+07 mm2
- Plate Area Colonized, 48 Hours [2, 5]: 3.44E+08 mm2
- Plate Area Colonized, 0 Hours [2, 6]: 2.12E+07 mm2
- Plate Area Colonized, 4 Hours [2, 6]: 2.21E+07 mm2
- Plate Area Colonized, 24 Hours [2, 6]: 2.69E+06 mm2
- Plate Area Colonized, 48 Hours [2, 6]: 1.86E+05 mm2

Structure (SMILES): O=S(=O)([O-])[O-].[Mg+2] [MgSO4]
- Plate Area Colonized, 0 Hours [2, 3]: 3.97E+06 mm2
- Plate Area Colonized, 24 Hours [2, 3]: 4.35E+06 mm2
- Plate Area Colonized, 48 Hours [2, 3]: 9.68E+06 mm2
- Plate Area Colonized, 0 Hours [2, 4]: 3.97E+06 mm2
- Plate Area Colonized, 24 Hours [2, 4]: 1.81E+07 mm2
- Plate Area Colonized, 48 Hours [2, 4]: 9.50E+06 mm2

Structure (SMILES): O=S(=O)([O-])[O-].[Cu+2] [CuSO4]
- Plate Area Colonized, 0 Hours [2, 5]: 2.12E+07 mm2
- Plate Area Colonized, 4 Hours [2, 5]: 9.49E+07 mm2
- Plate Area Colonized, 24 Hours [2, 5]: 1.81E+08 mm2
- Plate Area Colonized, 48 Hours [2, 5]: 3.32E+08 mm2
- Plate Area Colonized, 0 Hours [2, 6]: 2.12E+07 mm2
- Plate Area Colonized, 4 Hours [2, 6]: 1.00E+00 mm2
- Plate Area Colonized, 24 Hours [2, 6]: 1.00E+00 mm2
- Plate Area Colonized, 48 Hours [2, 6]: 1.00E+00 mm2
